Measurements as given in ChEMBL document CHEMBL1687734, “Pharmacokinetics of EDP-420 after multiple oral doses in healthy adult volunteers and in a bioequivalence study” (Antimicrob Agents Chemother, 2009).

Experiments:
Format in all cases: ADME, organism-based
Homo sapiens [1] = assay: Cmax in healthy human plasma assessed as EDP-420 9-keto level at 200 mg, po once daily for 3 days measured after 1 day by HPLC-tandem mass spectrometry; parameters: dose 200 mg, route oral; conditions: in vivo, 24 h
Homo sapiens [2] = assay: Cmax in healthy human plasma assessed as EDP-420 9-keto level at 200 mg, po once daily for 3 days measured after 3 days by HPLC-tandem mass spectrometry; parameters: dose 200 mg, route oral; conditions: in vivo, 72 h
Homo sapiens [3] = assay: Tmax in healthy human plasma assessed as EDP-420 9-keto level at 200 mg, po once daily for 3 days measured after 1 day; conditions: in vivo, 24 h
Homo sapiens [4] = assay: Tmax in healthy human plasma assessed as EDP-420 9-keto level at 200 mg, po once daily for 3 days measured after 3 days; conditions: in vivo, 72 h
Homo sapiens [5] = assay: AUC (0 to last) in healthy human plasma assessed as EDP-420 9-keto level at 200 mg, po once daily for 3 days measured after 1 day; parameters: dose 200 mg, time 0 - last, route oral; conditions: in vivo, 24 h
Homo sapiens [6] = assay: AUC (0 to last) in healthy human plasma assessed as EDP-420 9-keto level at 200 mg, po once daily for 3 days measured after 3 days; parameters: dose 200 mg, time 0 - last, route oral; conditions: in vivo, 72 h
Homo sapiens [7] = assay: AUC (0 to infinity) in healthy human plasma assessed as EDP-420 9-keto level at 200 mg, po once daily for 3 days measured after 3 days; parameters: dose 200 mg, time infinity, route oral; conditions: in vivo, 72 h
Homo sapiens [8] = assay: Ratio of AUC (0 to 24 hrs) in healthy human plasma assessed as EDP-420 9-keto level at 200 mg, po once daily for 3 days measured on day 3 to AUC (0 to 24 hrs) in healthy human plasma assessed as EDP-420 9-keto level at 200 mg, po once daily for 3 days measured on day 1; conditions: in vivo
Homo sapiens [9] = assay: Half life in healthy human plasma assessed as EDP-420 9-keto level at 200 mg, po administered as once daily for 3 days measured after 3 days; conditions: in vivo, 72 h
Homo sapiens [10] = assay: Cmax in healthy human plasma assessed as EDP-420 9-keto level at loading dose of 400 mg/day, po once daily for 3 days measured after 1 day by HPLC-tandem mass spectrometry; parameters: dose 400 mg/day, route oral; conditions: in vivo, 24 h
Homo sapiens [11] = assay: Tmax in healthy human plasma assessed as EDP-420 9-keto level at loading dose of 400 mg/day, po once daily for 3 days measured after 1 day; conditions: in vivo, 24 h
Homo sapiens [12] = assay: Cmax in healthy human plasma assessed as EDP-420 9-keto level at 400 mg administered once on day 1 followed by 200 mg once daily for 2 days during 3 days of treatment measured after 3 days by HPLC-tandem mass spectrometry; parameters: dose 400 mg; conditions: in vivo, 72 h
Homo sapiens [13] = assay: AUC (0 to last) in healthy human plasma assessed as EDP-420 9-keto level at 400 mg administered once on day 1 followed by 200 mg once daily for 2 days during 3 days of treatment measured after 3 days; parameters: dose 400 mg, time 0 - last; conditions: in vivo, 72 h
Homo sapiens [14] = assay: AUC (0 to infinity) in healthy human plasma assessed as EDP-420 9-keto level at 400 mg administered once on day 1 followed by 200 mg once daily for 2 days during 3 days of treatment measured after 3 days; parameters: dose 400 mg, time infinity; conditions: in vivo, 72 h
Homo sapiens [15] = assay: Ratio of AUC (0 to 24 hrs) in healthy human plasma assessed as EDP-420 9-keto level at loading dose of 400 mg/day, po administered as single dose measured on 1 day to AUC (0 to 24 hrs) in healthy human plasma assessed as EDP-420 9-keto level at 400 mg administered once on day 1 followed by 200 mg once daily for 2 days during 3 days of treatment measured on day 3; conditions: in vivo
Homo sapiens [16] = assay: Half life in healthy human plasma assessed as EDP-420 9-keto level at 400 mg administered once on day 1 followed by 200 mg once daily for 2 days during 3 days of treatment measured after 3 days; conditions: in vivo, 72 h
Homo sapiens [17] = assay: Cmax in 8 hrs fasted healthy human plasma assessed as EDP-420 9-keto level at 200 mg, po administered as single dose of suspension by HPLC-tandem mass spectrometry; parameters: dose 200 mg, route oral; conditions: in vivo
Homo sapiens [18] = assay: Cmax in 8 hrs fasted healthy human plasma assessed as EDP-420 9-keto level at 200 mg, po administered as single dose of two-100 mg capsules by HPLC-tandem mass spectrometry; parameters: dose 200 mg, route oral; conditions: in vivo
Homo sapiens [19] = assay: Cmax in high-fat fed healthy human plasma assessed as EDP-420 9-keto level at 200 mg, po administered as single dose of two-100 mg capsules by HPLC-tandem mass spectrometry; parameters: dose 200 mg, route oral; conditions: in vivo
Homo sapiens [20] = assay: Tmax in 8 hrs fasted healthy human plasma assessed as EDP-420 9-keto level at 200 mg, po administered as single dose of suspension; conditions: in vivo
Homo sapiens [21] = assay: Tmax in 8 hrs fasted healthy human plasma assessed as EDP-420 9-keto level at 200 mg, po administered as single dose of two-100 mg capsules; conditions: in vivo
Homo sapiens [22] = assay: Tmax in high-fat fed healthy human plasma assessed as EDP-420 9-keto level at 200 mg, po administered as single dose of two-100 mg capsules; conditions: in vivo
Homo sapiens [23] = assay: AUC (0 to last) in 8 hrs fasted healthy human plasma assessed as EDP-420 9-keto level at 200 mg, po administered as single dose of suspension; parameters: dose 200 mg, time 0 - last, route oral; conditions: in vivo
Homo sapiens [24] = assay: AUC (0 to last) in 8 hrs fasted healthy human plasma assessed as EDP-420 9-keto level at 200 mg, po administered as single dose of two-100 mg capsules; parameters: dose 200 mg, time 0 - last, route oral; conditions: in vivo
Homo sapiens [25] = assay: AUC (0 to last) in high-fat fed healthy human plasma assessed as EDP-420 9-keto level at 200 mg, po administered as single dose of two-100 mg capsules; parameters: dose 200 mg, route oral, time 0 - last; conditions: in vivo
Homo sapiens [26] = assay: AUC (0 to infinity) in 8 hrs fasted healthy human plasma assessed as EDP-420 9-keto level at 200 mg, po administered as single dose of suspension; parameters: dose 200 mg, time infinity, route oral; conditions: in vivo
Homo sapiens [27] = assay: AUC (0 to infinity) in 8 hrs fasted healthy human plasma assessed as EDP-420 9-keto level at 200 mg, po administered as single dose of two-100 mg capsules; parameters: dose 200 mg, time infinity, route oral; conditions: in vivo
Homo sapiens [28] = assay: AUC (0 to infinity) in high-fat fed healthy human plasma assessed as EDP-420 9-keto level at 200 mg, po administered as single dose of two-100 mg capsules; parameters: dose 200 mg, time infinity, route oral; conditions: in vivo
Homo sapiens [29] = assay: Half life in 8 hrs fasted healthy human plasma assessed as EDP-420 9-keto level at 200 mg, po administered as single dose of suspension; conditions: in vivo
Homo sapiens [30] = assay: Half life in 8 hrs fasted healthy human plasma assessed as EDP-420 9-keto level at 200 mg, po administered as single dose of two-100 mg capsules; conditions: in vivo
Homo sapiens [31] = assay: Half life in high-fat fed healthy human plasma assessed as EDP-420 9-keto level at 200 mg, po administered as single dose of two-100 mg capsules; conditions: in vivo
Homo sapiens [32] = assay: Ratio of drug concentration in 8 hrs fasted healthy human plasma at 200 mg, po administered as single dose of suspension to drug concentration in 8 hrs fasted healthy human plasma assessed as EDP-420 9-keto level at 200 mg, po administered as single dose of suspension; conditions: in vivo
Homo sapiens [33] = assay: Ratio of drug concentration in high-fat fed healthy human plasma at 200 mg, po administered as single dose of two-100 mg capsules to drug concentration in high-fat fed healthy human plasma assessed as EDP-420 9-keto level at 200 mg, po administered as single dose of two-100 mg capsules; conditions: in vivo
[34] = Drug concentration in Epithelial lining fluid of healthy human at 500 mg, po administered as single dose after 24 hrs; conditions: read-out: Drug uptake
[35] = Drug concentration in Alveolar macrophage of healthy human at 500 mg, po administered as single dose after 24 hrs; conditions: alveolar macrophages, read-out: Drug uptake

Molecule `CC[C@H]1OC(=O)[C@H](C)C(=O)[C@H](C)[C@@H](O[C@@H]2O[C@H](C)C[C@H](N(C)C)[C@H]2O)[C@@]2(C)C[C@@H](C)C(=O)[C@H](C)[C@@H](OC/C(=N\OCc3ccc(-n4cccn4)nc3)CO2)[C@]1(C)O` has a Cmax (Homo sapiens [1]) of 30.5 ng/mL, a Cmax (Homo sapiens [2]) of 46 ng/mL and a Tmax (Homo sapiens [3]) of 5 h. For the same molecule, the Tmax (Homo sapiens [4]) was 5 h, the AUC (Homo sapiens [5]) was 461 ng·h/mL and the AUC (Homo sapiens [6]) was 2134 ng·h/mL. For the same molecule, the AUC (Homo sapiens [7]) was 2209 ng·h/mL, the “Ratio AUC” value (Homo sapiens [8]) was 1.76 and the t1/2 (Homo sapiens [9]) was 29.5 h. For the same molecule, the Cmax (Homo sapiens [10]) was 49 ng/mL, the Tmax (Homo sapiens [11]) was 5 h and the Cmax (Homo sapiens [12]) was 47.6 ng/mL. The AUC (Homo sapiens [13]) was 2154 ng·h/mL, the AUC (Homo sapiens [14]) was 2228 ng·h/mL and the “Ratio AUC” value (Homo sapiens [15]) was 1.11. The t1/2 (Homo sapiens [16]) was 27.8 h, the Cmax (Homo sapiens [17]) was 24.9 ng/mL and the Cmax (Homo sapiens [18]) was 23.7 ng/mL. The Cmax (Homo sapiens [19]) was 36.1 ng/mL, the Tmax (Homo sapiens [20]) was 5 h and the Tmax (Homo sapiens [21]) was 5 h. The Tmax (Homo sapiens [22]) was 6 h, the AUC (Homo sapiens [23]) was 754 ng·h/mL and the AUC (Homo sapiens [24]) was 745 ng·h/mL. It also gave an AUC (Homo sapiens [25]) of 1220 ng·h/mL, an AUC (Homo sapiens [26]) of 842 ng·h/mL and an AUC (Homo sapiens [27]) of 837 ng·h/mL. The AUC (Homo sapiens [28]) was 1326 ng·h/mL, the t1/2 (Homo sapiens [29]) was 29.5 h and the t1/2 (Homo sapiens [30]) was 30.5 h. It also gave a t1/2 (Homo sapiens [31]) of 28.4 h, a Ratio (Homo sapiens [32]) of 0.1 and a Ratio (Homo sapiens [33]) of 0.16.
`CC[C@H]1OC(=O)[C@H](C)[C@@H](O[C@H]2C[C@@](C)(OC)[C@@H](O)[C@H](C)O2)[C@H](C)[C@@H](O[C@@H]2O[C@H](C)C[C@H](N(C)C)[C@H]2O)[C@](C)(O)C[C@@H](C)CN(C)[C@H](C)[C@@H](O)[C@]1(C)O` [AZITHROMYCIN] gave a concentration at 24 h [34] of 90 ng/mL and a concentration at 24 h [35] of 30800 ng/mL.
